In this assay the test system is GluN2-containing NMDARs. The assay can be described thus: Whole-cell patch-clamp, NMDA-induced native currents in acutely isolated hippocampal neurons. In kind it is cell-based, rat. Conditions: 10 μM WZB117. As for the experimental part: Hippocampal neurons were obtained from Sprague-Dawley rats (aged P7-14). Briefly, the isolated hippocampal tissues were cut into approximately […] slices along the sagittal plane and were digested with 3 mg/ml proteinase (Sigma-Aldrich) at 32°C for 8 min. Then 1 mg/ml bovine serum albumin (Sangon Biotech) and 1 mg/ml trypsin inhibitor (Sigma-Aldrich) were used to stop the digestion. A few slices of the hippocampus were gently blown into single cells with the dissecting solution, then transferred to a dish and left to rest for 20 min before experiments. The dishes were preprocessed. Essentially, the bottom of the dish was covered with discarded cell suspension the day before the experiment and was washed and dried the next day, which prevented the neurons from sticking to the bottom too tightly. The dissecting solution contained (in mM): 82 Na2SO4, 30 K2SO4, 5 MgCl2, 1 Na pyruvate, 10 HEPES, and 20 glucose. The pH was adjusted to 7.2 using NaOH ([Xie et al., 2020]).
Whole-cell patch-clamp recordings were performed at room temperature (22–25°C) using an EPC-10 amplifier and Patch Master Software (HEKA). Pipettes were pulled from borosilicate glass capillaries (World Precision Instruments), and the resistances were 3–5 MΩ when filled with the intracellular solution. […]
In general terms: Patch clamp records ionic current or voltage across a cell membrane.

In the case of `O=C(Oc1cccc(F)c1OC(=O)c1cccc(O)c1)c1cccc(O)c1` [WZB117, 3-fluoro-1,2-phenylene bis(3-hydroxybenzoate)], the “I drug/I control” value came to 0.73 ± 0.01.

Source of the values: paper PMC9218946, “Identification of a Subtype-Selective Allosteric Inhibitor of GluN1/GluN3 NMDA Receptors” (Frontiers in Pharmacology, 2022).
